Several values for one entry are separate records, joined by “and”; a condition that tells them apart may be missing. Equal entries are not always repeated. Where two headings read alike, the source gives them in different places.
Key:
[1] = tested on: alopecia which is induced by cyclophosphamide; conditions: rats
[2] = tested on: alopecia under carboplatinum/etoposide chemotherapy; test: phase II chemotherapy trial, alopecia score; format: in vivo, patients; conditions: Group II: tellurate 3 mg/m^2 three times a week plus carboplatinum/etoposide chemotherapy; 12 weeks after chemotherapy
Experimental: A phase II chemotherapy trial was carried out in patients having unresectable and metastatic non-small cell lung tumors. The chemotherapy was based on carboplatinum 300.0 mg/m^2/IV daily and etoposide 200.0 mg/m^2 on day 3, 5 and 7 for a total of 12 weeks of chemotherapy which was given to group I. In addition to the same chemotherapy, ammonium trichloro (O,O′-dioxoethylene)tellurate was given to Group II at a dose of 3 mg/m^2 three times a week starting two weeks before the chemotherapy and continued for 12 weeks after the chemotherapy. The alopecia of both groups was observed 12 weeks after the chemotherapy and was as follows: […]

[3] = tested on: arabinoside-C induced alopecia; test: arabinoside-C induced alopecia in 8 day old rats, tellurate given i.p. (method of Hussein et al.); format: in vivo, Sprauge Dawley rats; conditions: for effect on alopecia of a tellurate regimen / No. of subjects with alopecia grade 0 (no detectable alopecia) / No. of subjects with alopecia grade 1+ (mild, hair loss <50%) / No. of subjects with alopecia grade 2+ (moderately severe, hair loss >50%) / No. of subjects with alopecia grade 3+ (total or virtually total, hair loss >79%): rats; for No. of subjects with alopecia grade 0 (no detectable alopecia) / No. of subjects with alopecia grade 1+ (mild, hair loss <50%) / No. of subjects with alopecia grade 2+ (moderately severe, hair loss >50%) / No. of subjects with alopecia grade 3+ (total or virtually total, hair loss >79%): day 9
Experimental: 28, 1990, pp. 1564-1566. […] The cycle of treatment lasted 7 days. […] A second experiment was carried out using the same procedure which is outlined above.

[4] = tested on: arabinoside-C induced alopecia; test: topical application in glycerin to back of arabinoside-C injected rats; format: in vivo; set-up: key to Grade of Alopecia: 0 = no alopecia; 1 = less than 20% alopecia; 2 = less than 50% alopecia; 3 = more than 50% alopecia; 4 = total alopecia; conditions: for Grade of Alopecia: arabinoside-C 25 mg/kg 2 h after each treatment
Experimental: A stock composition of 1 mg. of ammonium trichloro (O,O′-dioxoethylene) tellurate in 1 ml. of glycerin was prepared. The stock composition was diluted with glycerin to give the following concentrations per ml. so that the stated dose could be applied topically by application of 1 ml. of solution. The solution was applied to the entire back surface of rats once daily for a period of 7 days. Two hours after each treatment the rats were injected with 25 mg/kg of arabinoside-C once daily. Control rats were treated with a glycerin and injected with arabinoside-C.

[5] = cyclophosphamide 20 mg/kg i.p. ×7 days alone
[6] = tellurate 0.5 mg/Kg IP daily ×7 days with cyclophosphamide 20 mg/kg i.p. ×7 days, listed as ammonium trichloro (0,0′-dioxoethylene) tellurate
[7] = tellurate 0.5 mg/Kg IP daily ×7 days with arabinoside-C 25 mg/kg i.p., first experiment
[8] = tellurate 0.5 mg/Kg IP daily ×7 days with arabinoside-C 50 mg/kg i.p., first experiment
[9] = tellurate 0.5 mg/Kg IP every other day ×7 days with arabinoside-C 25 mg/kg i.p., first experiment
[10] = tellurate 0.5 mg/Kg IP every other day ×7 days with arabinoside-C 50 mg/kg i.p., first experiment
[11] = tellurate 0.5 mg/Kg IP every other day ×7 days with arabinoside-C 50 mg/kg i.p., second experiment
[12] = arabinoside-C 25 mg/kg daily ×7 days alone, first experiment
[13] = arabinoside-C 50 mg/kg i.p. ×7 days alone, first experiment

With `O=P1(N(CCCl)CCCl)NCCCO1` (centres unmarked) [cyclophosphamide, reference compound] the “No. of subjects with alopecia grade 0 (no detectable alopecia)” value (“No. of subjects … (no detectable alopecia)” for short) [1, 5] was 1, the “No. of subjects with alopecia grade 1+ (mild, hair loss <50%)” value (shortened to “No. of subjects … (mild, hair loss <50%)”) [1, 5] was 3 and 2 and the “No. of subjects … (mild, hair loss <50%)” value ([1]; cyclophosphamide 20 mg/kg i.p. ×7 days alone, listed as cyclosphosphamide) was 10.
For `Cl[TeH]1(Cl)(Cl)OCCO1.N` [ammonium-trichloro (O,O′-dioxoethylene) tellurate], the “number with alopecia score 0” value [2] was 122, the “number with alopecia score I (casual alopecia)” value [2] was 26 and the “number with alopecia score II (>50% alopecia)” value [2] was 40. The “number with alopecia score III (<50% alopecia)” value [2] was 12, the “number with alopecia score IV (total alopecia)” value [2] was 0 and the “percentage with alopecia score 0” value [2] was 61.00%. The “percentage with alopecia score I (casual alopecia)” value [2] was 13.00%, the “percentage with alopecia score II (>50% alopecia)” value [2] was 20.00% and the “percentage with alopecia score III (<50% alopecia)” value [2] was 6.00%. The “percentage with alopecia score IV (total alopecia)” value [2] was 0.00%, the “protection against cyclophosphamide induced alopecia” value ([1]; 0.5 mg/kg/i.p. in conjunction with cyclophosphamide) was “mild protection” and the “No. of subjects … (mild, hair loss <50%)” value ([1]; tellurate 0.5 mg/Kg IP daily ×7 days with cyclophosphamide 20 mg/kg i.p. ×7 days) was 4. For the same compound, the “No. of subjects … (no detectable alopecia)” value [1, 6] was 2, the “No. of subjects … (mild, hair loss <50%)” value [1, 6] was 2 and the “No. of subjects with alopecia grade 2+ (moderately severe, hair loss >50%)” value [1, 6] was 1. The “effect on alopecia of a tellurate regimen” value ([3]; given daily) was “almost completely avoids alopecia”, the “effect on alopecia of a tellurate regimen” value ([3]; given every other day) was “provides some protection from alopecia” and the “histological examination of the skin” value ([3]; subjects treated with arabinoside-C and tellurate) was “no hair loss or reduced hair loss”. The “No. of subjects … (no detectable alopecia)” value [3, 7] was 0, the “No. of subjects … (mild, hair loss <50%)” value [3, 7] was 4 and the “No. of subjects with alopecia grade 2+ (moderately severe, hair loss >50%)” value [3, 7] was 0. For the same compound, the “No. of subjects with alopecia grade 3+ (total or virtually total, hair loss >79%)” value [3, 7] was 0, the “No. of subjects … (no detectable alopecia)” value ([3]; tellurate 0.5 mg/Kg IP daily ×7 days with arabinoside-C 25 mg/kg i.p., second experiment) was 6 and the “No. of subjects … (no detectable alopecia)” value [3, 8] was 0. The “No. of subjects … (mild, hair loss <50%)” value [3, 8] was 3, the “No. of subjects with alopecia grade 2+ (moderately severe, hair loss >50%)” value [3, 8] was 1 and the “No. of subjects with alopecia grade 3+ (total or virtually total, hair loss >79%)” value [3, 8] was 0. For the same compound, the “No. of subjects … (no detectable alopecia)” value ([3]; tellurate 0.5 mg/Kg IP daily ×7 days with arabinoside-C 50 mg/kg i.p., second experiment) was 6, the “No. of subjects … (no detectable alopecia)” value [3, 9] was 0 and the “No. of subjects … (mild, hair loss <50%)” value [3, 9] was 4. The “No. of subjects with alopecia grade 2+ (moderately severe, hair loss >50%)” value [3, 9] was 0, the “No. of subjects with alopecia grade 3+ (total or virtually total, hair loss >79%)” value [3, 9] was 0 and the “No. of subjects … (no detectable alopecia)” value ([3]; tellurate 0.5 mg/Kg IP every other day ×7 days with arabinoside-C 25 mg/kg i.p., second experiment) was 6. The “No. of subjects … (no detectable alopecia)” value [3, 10] was 0, the “No. of subjects … (mild, hair loss <50%)” value [3, 10] was 1 and the “No. of subjects with alopecia grade 2+ (moderately severe, hair loss >50%)” value [3, 10] was 3. For the same compound, the “No. of subjects with alopecia grade 3+ (total or virtually total, hair loss >79%)” value [3, 10] was 0, the “No. of subjects … (mild, hair loss <50%)” value [3, 11] was 1 and the “No. of subjects with alopecia grade 2+ (moderately severe, hair loss >50%)” value [3, 11] was 2. The “No. of subjects with alopecia grade 3+ (total or virtually total, hair loss >79%)” value [3, 11] was 3, the “Grade of Alopecia” value ([4]; 10 ug/rat topical in glycerin once daily 7 days) was 3 (3 = more than 50% alopecia) and the “Grade of Alopecia” value ([4]; 20 ug/rat topical in glycerin once daily 7 days) was 1 (1 = less than 20% alopecia). The “rats that showed 0% alopecia” value ([4]; 50 ug topical, arabinoside-C 25 mg/kg) was 100%, the “Grade of Alopecia” value ([4]; 50 ug/rat topical in glycerin once daily 7 days) was 0 and the “Grade of Alopecia” value ([4]; 100 ug/rat topical in glycerin once daily 7 days) was 2 (2 = less than 50% alopecia). For the same compound, the “Grade of Alopecia” value ([4]; 200 ug/rat topical in glycerin once daily 7 days) was 3 (3 = more than 50% alopecia) and the “dose response of topical effect on alopecia” value ([4]; 10-200 ug/rat topical, arabinoside-C 25 mg/kg) was “A dose response effect was observed”.
With `Nc1ccn([C@@H]2O[C@H](CO)[C@@H](O)[C@@H]2O)c(=O)n1` [arabinoside-C, reference compound] the “No. of subjects … (no detectable alopecia)” value [3, 12] was 0, the “No. of subjects … (mild, hair loss <50%)” value [3, 12] was 0 and the “No. of subjects with alopecia grade 2+ (moderately severe, hair loss >50%)” value [3, 12] was 0. The “No. of subjects with alopecia grade 3+ (total or virtually total, hair loss >79%)” value [3, 12] was 3, the “No. of subjects with alopecia grade 3+ (total or virtually total, hair loss >79%)” value ([3]; arabinoside-C 25 mg/kg i.p. ×7 days alone, second experiment) was 8 and the “No. of subjects … (no detectable alopecia)” value [3, 13] was 0. For the same compound, the “No. of subjects … (mild, hair loss <50%)” value [3, 13] was 0, the “No. of subjects with alopecia grade 2+ (moderately severe, hair loss >50%)” value [3, 13] was 0 and the “No. of subjects with alopecia grade 3+ (total or virtually total, hair loss >79%)” value [3, 13] was 4. The “No. of subjects with alopecia grade 3+ (total or virtually total, hair loss >79%)” value ([3]; arabinoside-C 50 mg/kg i.p. ×7 days alone, second experiment) was 8, the “histological examination of the skin” value ([3]; arabinoside-C treated subjects) was “almost complete loss of hair follicles” and the alopecia ([4]; all control animals: glycerin topical, arabinoside-C 25 mg/kg once daily) was 100%.

— patent US6552089B1, “Method of treating or preventing alopecia” (priority 1992, dated 2003)
